Values of other authors in patent US20050089581A1, “Magnesium-containing compositions and methods for enhancing dehydroepiandrosterone levels” (priority 2003, published 2005).

Experiments:
platelet aggregation = details: second week, 300 mg DHEA per day orally
[1] = system: human coxsackievirus B4 strain
[2] = second week, 300 mg DHEA per day orally
[3] = administration of DHEA, its esters, or salts thereof; W. Regelson et al.
DHEA levels = details: oral administration

C[C@]12CCC(O)CC1=CC[C@@H]1[C@@H]2CC[C@]2(C)C(=O)CC[C@@H]12 (stereo partly shown) [DHEA, 3-hydroxyandrost-5-en-17-one]
subjects with slower rate of platelet aggregation and need for higher arachidonic acid concentration to initiate aggregation (platelet aggregation): Four of the five test subjects | mortality ([1]; infection with 100,000 plaque forming units/animal, about 90% mortality in infected animals without treatment): 37% | elevation in the number of antibody forming cells ([1]; within the animal, DHEA administered): 80% | mean serum DHEA-S level ([2]; DHEA group, baseline 316.2, placebo 260.5+/−56.7): 1451.9 ± 56.7 µg/dL | mean serum DHEA ([2]; treated group, baseline 5.83+/−3.9, placebo 5.58+/−4.1): 28.7 ± 13.9 ng/mL | side effects [3]: mild androgenic effects and hirsutism

magnesium taurate
effect on DHEA levels (DHEA levels): does not increase DHEA levels
